Where a SMILES comes first, the peptide text is derived from it. Where no end group is shown, it is not given here.
What was measured:
[1] = test system: E. coli ATCC 25922; experiment: Broth microdilution assay (turbidity and CFU); format: cell-based, Escherichia coli; conditions: 100 µg/ml peptide, 2 hours at 37 °C, plated on agar (Fig. 2D)
Procedure: To differentiate between microbistatic and microbicidal activity we performed a broth microdilution assay. For that, E. coli ATCC25922 bacteria were incubated overnight at 37 °C, 150 rpm. C. albicans ATCC 10231 was grown at 30 °C overnight, 150 rpm in liquid TSB. Cells were collected by centrifugation (2500 rpm, 10 min, 4 °C), washed twice and resuspended in 10 mM sodium phosphate buffer containing 1% (w/v) TSB broth. Required C. albicans cell density was adjusted using a hemocytometer. For bacteria the optical density of OD600nm = 0.1 was determined. Approximately 5 × 10^5 CFU/ml bacteria or fungi were mixed with indicated peptide concentrations (1.25–200 µg/ml) in a final volume of 100 µl in 10 mM sodium phosphate buffer containing 1% (w/v) TSB broth and incubated for 2 hours at 37 °C. After incubation 10 µl per well were plated on LB-/ or YPD-agar plates to determine the CFU/ml. After that 100 µl of 6% TSB (w/v) were added and absorbance was measured at 600 nm (Tecan, Switzerland) and monitored for 18 hours. Growth relative to the positive control in % was plotted against peptide concentration. Experiments were carried out at least three times; mean ± SEM is shown.

[2] = test system: C. albicans SC5314; experiment: Model of oral candidiasis: RHOE infected with C. albicans; format: cell-based, Candida albicans; conditions: RHOE preincubated 1 h with 50 µg/ml peptide, infected with C. albicans for 24 h; for fungal load / invasion of the epithelium: histology (Fig. 5A)
Procedure: Octapeptides were diluted to 50 µg/ml in PBS, or an equivalent volume of 0.01% acetic acid were applied to the apical side of the RHOEs and incubated for 1 h. C. albicans SC5314 was synchronized as described previously. Yeast cells were washed three times in PBS and 1 × 10^5 CFU were used for infection of pre-treated RHEs. After 24 h RHEs were fixed with Karnovsky’s fixative. Post-fixed samples (1% OsO4, 1 h) were rinsed with distilled water, block-stained with uranyl acetate (2% in distilled water), dehydrated in alcohol (stepwise 30–96%), immersed in propylene oxide and embedded in glycide ether (polymerized 48 h at 60 °C, Serva, Heidelberg). Semi-thin sections were stained with toluidine blue and examined with a Nikon Eclipse 80i light microscope (magnification 1:400). Afterwards, fungal cells were simply coloured in red.

[3] = test system: C. albicans ATCC 10231; experiment: Flow cytometric assay, propidium iodide uptake; format: cell-based, Candida albicans; conditions: 100 µg/ml peptide, 1 h, flow cytometry (Fig. 3A)
Procedure: (§1) Approximately 1.5 × 10^6 CFU log-phase bacteria or overnight cultured C. albicans ATCC 10231 were used in a final volume of 100 µl TSB (1:6 diluted H2O). We added peptides in concentrations 50 and 100 µg/ml in a final volume of 10 µl and incubated theses suspensions for 1 h at 37 °C. Subsequently 2 µl of membrane potential sensitive dye DiBAC4(3) [bis-[1,3-dibutylbarituric acid)trimethine oxonol] (Thermo Scientific, USA) (50 µg/ml) or Propidium Iodide (Thermo Scientific, USA) (50 µg/ml) were added and incubated for 10 min at room temperature. Then samples were centrifuged (5 min, 7000 rpm, RT) and re-suspended in 300 µl PBS. The percentage of fluorescent positive cells was determined using Canto II flow cytometer (BD Bioscience) with DIVA software (BD Bioscience) as described earlier. Experiments were repeated at least three times and mean +/− SEM is shown.

[4] = test system: E. coli ATCC 25922; experiment: Flow cytometric assay, propidium iodide uptake; format: cell-based, Escherichia coli; conditions: 100 µg/ml peptide, 1 h, flow cytometry, at least three experiments (Fig. 3A)
Procedure: as §1

[5] = test system: Candida albicans; experiment: Radial diffusion assay; format: cell-based; conditions: for antimicrobial activity against C. albicans (diameter of inhibition zones): 4 µg peptide, variants compared with RGKAKCCK (Fig. 1E,F, Fig. 2A)
Procedure: (§2) Antimicrobial radial diffusion assay was modified from reference[17] and performed as described earlier. Briefly, microorganisms were cultivated (anaerobic bacteria with AnaeroGen, Oxoid, UK) for up to 18 hours in liquid TSB medium. Log-phase cultures were washed and diluted to 4 × 10^6 colony forming units in 10 ml agar. Incubation was carried out in 10 ml of 10 mM sodium phosphate, either pH 7.4 or 5.7, containing 0.3 mg/ml of TSB powder and 1% (w/v) low EEO-agarose (AppliChem) with 0 or 1 mM dithiothreitol (DTT, Sigma-Aldrich) under anaerobic or aerobic conditions for three hours. 1 or 4 µg of synthetic, oxidized hBD-1 (Peptide Institute, Japan) and 1 or 4 µg of synthetic peptides (EMC Microcollections, Tuebingen) were filled into small punched wells in a final volume of 4 µl. This concentrated peptide solution dilutes while diffusing into the gel, thereby generating concentration-dependent, round-shaped inhibition zones when killing immobilized microorganisms.
(§3) An overlay-gel containing 6% (w/v) TSB powder, 1% agarose and 10 mM sodium phosphate buffer without DTT was poured onto the plates and after incubation for up to 48 h at 37 °C the diameter of inhibition zones was measured. Experiments were repeated at least three times; mean + SEM is shown.

[6] = test system: Pseudomonas aeruginosa; experiment: Radial diffusion assay; format: cell-based; conditions: P. aeruginosa ATCC type strain (Figs 1D, 2A)
Procedure: as §2, §3

[7] = test system: Escherichia coli; experiment: Radial diffusion assay; format: cell-based; conditions: for antimicrobial activity against E. coli (diameter of inhibition zones): 4 µg peptide, variants compared with RGKAKCCK (Fig. 1E,F, Fig. 2A)
Procedure: as §2, §3

[8] = test system: Streptococcus salivarius ssp. thermophilus; experiment: Radial diffusion assay; format: cell-based; conditions: 1 or 4 µg peptide per well, at least three experiments (Fig. 1D)
Procedure: as §2, §3

[9] = test system: Bifidobacterium adolescentis; experiment: Radial diffusion assay; format: cell-based; conditions: 10 mM sodium phosphate, 1 or 4 µg peptide per well, at least three experiments (Fig. 1D)
Procedure: as §2, §3

[10] = test system: Bifidobacterium breve; experiment: Radial diffusion assay; format: cell-based; conditions: 1 or 4 µg peptide per well (Fig. 1D)
Procedure: as §2, §3

[11] = test system: selected commensal and pathogenic microorganisms; experiment: Radial diffusion assay, semi-quantitative evaluation on a molar base; format: cell-based; conditions: 4 µg reduced hBD-1 equivalent to 254 µM, 1 µg octapeptide equivalent to 280 µM in the RDA
Procedure: as §2, §3

[12] = test system: antibiotic-resistant bacteria; experiment: Radial diffusion assay, drug-resistant clinical isolates overall; format: cell-based; conditions: 4 µg peptide, direct comparison of the four peptides (Fig. 2B)
Procedure: as §2, §3

[13] = test system: chymotrypsin; experiment: Protease digestion with chymotrypsin, fragments analysed by MALDI-MS; format: in vitro ADME; conditions: 2 µg peptide, protease:peptide 1:20, 10 mM sodium phosphate pH 7.4, 90 min
Procedure: (§4) 2 µg of oxidized or reduced hBD-1 were digested with pepsin or chymotrypsin at a protease: peptide ratio of 1:20 in HCl-acidified water, pH 3 (pepsin) or 10 mM sodium phosphate, pH 7.4 (chymotrypsin) for 90 min. Human duodenal secretion (pH 6.5–7) was taken during a routine gastroscopy by rinsing the duodenum with saline. Oxidized and reduced hBD-1 were incubated with human duodenal secretion for 30 min at 37 °C. As a control both peptides were incubated with 0.9% NaCl. Peptides were enriched with ZipTip (Millipore), co-crystallized with a-cyano-4-hydroxy cinnamic acid and analyzed with an ultraflex TOF/TOF machine (Bruker, Germany).

[14] = test system: pepsin; experiment: Protease digestion with pepsin, fragments analysed by MALDI-MS; format: in vitro ADME; conditions: 2 µg peptide, protease:peptide 1:20, HCl-acidified water pH 3, 90 min
Procedure: as §4

[15] = format: in vitro ADME, human; conditions: pH 6.5
Procedure: as §4

[16] = test system: trypsin; conditions: cited from earlier work
Text: Due to their ancient evolutionary origin and the strong demand for novel antimicrobial strategies, AMPs have been considered as potential antibiotic drug candidates. Mainly because they target “Achilles heels” of microorganisms, only few resistance mechanisms have been evolved over long time[14],[15]. Still, large-scale chemical synthesis of defensins containing three native disulphide-bridges has been a challenge and rendered the production expensive. Accordingly, the production of smaller, but yet antibiotic, fragments of defensins without disulphide bridges is a promising option. We have sh ...

[17] = 1 or 4 µg peptide per well, at least three experiments (Fig. 1D)

For `CC(=O)N[C@@H](CCCNC(=N)N)C(=O)NCC(=O)N[C@@H](CCCCN)C(=O)N[C@@H](C)C(=O)N[C@@H](CCCCN)C(=O)N[C@@H](CS)C(=O)N[C@@H](CS)C(=O)N[C@@H](CCCCN)C(N)=O` [Ac-RGKAKCCK-NH2] (Ac-RGKAKCCK-NH2), the “decrease in CFU of E. coli compared to untreated controls” value [1] was “more than 100 fold” and the “fungal load / invasion of the epithelium” value [2] was “invaded the whole epithelium”.
With `C[C@H](NC(=O)[C@H](CCCCN)NC(=O)CNC(=O)[C@@H](N)CCCNC(=N)N)C(=O)N[C@@H](CCCCN)C(=O)N[C@@H](CS)C(=O)N[C@@H](CS)C(=O)N[C@@H](CCCCN)C(=O)O` [RGKAKCCK] (H-RGKAKCCK-OH) the “decrease in CFU of E. coli compared to untreated controls” value [1] was “more than 100 fold”, the “PI uptake of C. albicans” value [3] was “up to 60%” and the “PI uptake / bacterial killing (cell death) of E. coli” value [4] was about 100%. The “antimicrobial activity (diameter of inhibition zones)” value [5, 17] was “convincing activity”, the “antimicrobial activity (diameter of inhibition zones)” value [6] was “neglectable antibiotic activity” and the “antimicrobial activity (diameter of inhibition zones)” value [7, 17] was “convincing activity”. For the same compound, the “antimicrobial activity (diameter of inhibition zones)” value [8] was “convincing activity”, the “antimicrobial activity (diameter of inhibition zones)” value [9] was “convincing activity” and the “antimicrobial activity (inhibition zones)” value [10] was “no inhibition zones”. The “activity on a molar base compared with the full length-peptide” value [11] was “less potent”, the “spectrum against the tested antibiotic-resistant bacteria” value [12] was “inhibited growth of the most tested antibiotic-resistant bacteria” and the epithelial damage ([2]; blinded scale 0 to 5 (Fig. 5B)) was “ameliorated epithelial damage”. The “fungal load / invasion of the epithelium” value [2] was “convincingly reduced the fungal load”.
With “AGAAKCCK [variant lacking Arg1 and Lys3]” the “antimicrobial activity against C. albicans (diameter of inhibition zones)” value [5] was “completely inactive” and the “antimicrobial activity against E. coli (diameter of inhibition zones)” value [7] was “completely inactive”.
For AGKAKCCK [variant lacking Arg1], the “antimicrobial activity against C. albicans (diameter of inhibition zones)” value [5] was “completely inactive” and the “antimicrobial activity against E. coli (diameter of inhibition zones)” value [7] was “completely inactive”.
With “DHYNCVSSGGQCLYSACPIFTKIQGTCYRGKAKCCK (disulfide (positions not given here)) [oxidized hBD-1, host-defense peptide human beta-defensin 1 with three disulphide bridges]” the “antimicrobial activity (inhibition zones)” value [10] was “no inhibition zones”, the “proteolytic susceptibility towards chymotrypsin” value [13] was “protease resistant” and the “proteolytic susceptibility towards pepsin” value [14] was “protease resistant”.
In the case of “DHYNCVSSGGQCLYSACPIFTKIQGTCYRGKAKCCK [reduced hBD-1, hBD-1 after reduction of its three disulphide bridges, a linear peptide]”, the “digestion by human duodenal secretion (generation of fragment m/z 893.5)” value [15] is listed as “generated a fragment having an m/z of 893.5”, the “antimicrobial activity (inhibition zones)” value [10] is listed as “inhibited its growth” and the “degradation by the intestinal protease trypsin” value [16] is listed as “can be degraded”.
For “RGKAKAAK [octapeptide with both cysteines replaced]”, the “antimicrobial activity against C. albicans (diameter of inhibition zones)” value [5] was “completely abolished activity” and the “antimicrobial activity against E. coli (diameter of inhibition zones)” value [7] was “completely abolished activity”.
For “RGKAKACK [octapeptide with Cys6 replaced by alanine]”, the “antimicrobial activity against C. albicans (diameter of inhibition zones)” value [5] was “strongly decreased activity” and the “antimicrobial activity against E. coli (diameter of inhibition zones)” value [7] was “increased”.
For “RGKAKCAK [octapeptide with Cys7 replaced by alanine]”, the “antimicrobial activity against C. albicans (diameter of inhibition zones)” value [5] was “strongly decreased activity” and the “antimicrobial activity against E. coli (diameter of inhibition zones)” value [7] was “increased”.

From PMC6403363, “Proteolytic Degradation of reduced Human Beta Defensin 1 generates a Novel Antibiotic Octapeptide” (Scientific Reports, 2019)
